In patent US8372844B2, “Piperazinyl-propyl-pyrazole derivatives as dopamine D4 receptor antagonists, and pharmaceutical compositions containing the same” (Korea Research Institute of Chemical Technology, priority 2007, dated 2013):
pIC50: −log10 of the molar value.

Key:
[1] = system: apomorphine-induced cage climbing in mice; assay: Apomorphine-induced climbing behavior in mice; assay type: in vivo; conditions: ip 30 min prior to apomorphine (1 mg/kg, sc); for ED50: Mus musculus, read-out: Inhibitory effects on apomorphine-induced climbing behavior ED50 (mg/kg, ip)
Experimental: When mice were treated with apomorphine (1 mg/kg, sc), a potent dopamine receptor agonist, and were put into cylindrical cages (diameter, 12 cm/height, 14 cm) with the floor and wall consisting of metal bars and covered with a lid, they begin to perform repeatedly a psychotic behavior of ‘cage climbing’. Their climbing behaviors were monitored every 10 min for 30 min and scored by 4-point rating scale (0˜3 points) depending on the extent of the behavior (Costentin, J. et al., Nature 1975, 257, 405-7; Protais, P. et al., Psychopharmacology 1976, 50, 1-6).
The compounds were injected intraperitoneally into mice 30 min prior to apomorphine administration. The inhibitory effects of the compounds against control group were measured and each ED50 was calculated therefrom.

rotarod deficit in mice [2] = assay: Rotarod deficit in mice; assay type: in vivo; conditions: ip
Experimental: (§1) Each mouse was administered with a test drug, and then placed on a 1 inch diameter knurled plastic rod rotating at 6 rpm (Ugo-Basile, Milano, Italy), and the rotarod deficit (%) was obtained by counting the number of mice fallen from the rotating rod within 1 min at 30, 60, 90, and 120 min after the administration of the drug.

[3] = target: T1, human recombinant dopamine D4.2 receptor (Homo sapiens, UniProt P21917, DEL265-296); assay: Measurement of affinity for dopamine D4 receptor ([3H]YM-09151-2 binding); conditions: [3H]YM-09151-2 0.1 nM, receptor expressed in CHO-K1 cells, 120 min at 25° C.
T1 construct: purchased PerkinElmer Life and Analytical Sciences, USA; host or cells: CHO-K1 cells
T1 sequence (P21917 with tags, fused parts or gaps DEL265-296): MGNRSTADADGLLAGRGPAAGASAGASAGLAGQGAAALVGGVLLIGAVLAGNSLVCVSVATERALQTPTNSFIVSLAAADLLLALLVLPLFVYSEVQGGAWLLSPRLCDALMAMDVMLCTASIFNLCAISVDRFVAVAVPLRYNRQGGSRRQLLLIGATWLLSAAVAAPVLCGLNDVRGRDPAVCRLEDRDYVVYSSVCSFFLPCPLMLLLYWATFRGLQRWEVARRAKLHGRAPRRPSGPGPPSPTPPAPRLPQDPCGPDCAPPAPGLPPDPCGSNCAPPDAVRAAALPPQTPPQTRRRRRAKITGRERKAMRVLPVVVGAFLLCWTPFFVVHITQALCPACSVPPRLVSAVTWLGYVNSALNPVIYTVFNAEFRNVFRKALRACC
Experimental: The affinities of the compounds for dopamine D4 receptor were measured by using human recombinant dopamine D4.2 receptor (PerkinElmer Life and Analytical Sciences, USA) expressed in CHO-K1 cells, and [^3H]YM-09151-2 (PerkinElmer) was used as a radioactive ligand.
50 mM Tris-HCl (pH 7.4) containing 120 mM NaCl, 5 mM KCl, 5 mM MgCl2 and 1 mM EDTA was used as a buffer solution for the analysis of receptor binding. [^3H] YM-09151-2 binding reactions were performed in a 96-well plate format.
For drug screening, a reaction mixture with a final volume of 0.25 mL was prepared by mixing a compound of the present invention, D4 receptor membrane (43 μg/well), [^3H] YM-09151-2 (0.1 nM), 50 mM Tris-HCl (pH 7.4) and the like. The reaction mixture was incubated for 120 min at 25° C., and then promptly passed through Wallac GF/C glass fiber filter (Wallac, Finland), which was already wetted in 0.5% PEI, by using Inotech harvester (Inotech) to terminate the reaction, and then washed with cold 50 mM Tris-HCl buffer solution. The filter was then covered with MeltiLex, sealed in a sample bag, and then dried in an oven. The radioactivity retained in the filter was finally counted using MicroBeta Plus, Wallac.
The affinity (IC50) of a compound for the receptor was calculated via nonlinear regression analysis of sigmoidal dose-response equation with the data obtained from three independent experiments (GraphPad Prism Program, San Diego, USA), which are carried out using 7-8 different concentrations of the compound in duplicate. Nonspecific binding was measured in the presence of 10 μM clozapine.

[4] = target: T2, Human recombinant dopamine D2 receptor (Homo sapiens, UniProt P14416); assay: Measurement of affinity for dopamine D2 receptor ([3H]spiperone binding)
T2 construct: purchased PerkinElmer; host or cells: CHO cell line
T2 sequence (P14416 whole entry): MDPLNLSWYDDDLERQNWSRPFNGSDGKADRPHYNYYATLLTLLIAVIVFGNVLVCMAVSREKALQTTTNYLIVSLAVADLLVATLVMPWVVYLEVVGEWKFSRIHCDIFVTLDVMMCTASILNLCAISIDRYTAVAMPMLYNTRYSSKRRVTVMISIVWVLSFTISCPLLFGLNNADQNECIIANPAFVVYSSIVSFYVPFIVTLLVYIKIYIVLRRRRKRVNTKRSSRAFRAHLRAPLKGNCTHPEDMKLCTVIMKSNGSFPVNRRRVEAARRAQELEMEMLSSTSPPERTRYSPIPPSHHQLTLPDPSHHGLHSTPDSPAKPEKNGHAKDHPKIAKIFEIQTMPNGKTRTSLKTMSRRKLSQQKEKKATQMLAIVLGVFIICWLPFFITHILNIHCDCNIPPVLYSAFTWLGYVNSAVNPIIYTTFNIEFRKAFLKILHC
Experimental: (§2) Human recombinant dopamine D2 and D3 receptors, which were expressed in CHO cell lines, respectively, were purchased from PerkinElmer and Euroscreen, respectively.
(§3) 50 mM Tris-HCl (pH 7.4) containing […] and 1 mM EDTA was used as a buffer solution for the measurement of affinity for dopamine D2 receptor. 50 mM Tris-HCl (pH 7.4) containing 5 mM MgCl2, 5 mM EDTA, 5 mM KCl, 1.5 mM CaCl2 and 120 mM NaCl was used as a buffer solution for the measurement of affinity for dopamine D3 receptor. For measurement of non-specific binding, 10 μM haloperidol (haloperidol) was used.

[5] = target: T3, Human recombinant dopamine D3 receptor (Homo sapiens, UniProt P35462); assay: Measurement of affinity for dopamine D3 receptor ([3H]spiperone binding); conditions: [3H]spiperone 0.8 nM, CHO cell line, 60 min at 27° C.
T3 construct: purchased Euroscreen; host or cells: CHO cell line
T3 sequence (P35462 whole entry): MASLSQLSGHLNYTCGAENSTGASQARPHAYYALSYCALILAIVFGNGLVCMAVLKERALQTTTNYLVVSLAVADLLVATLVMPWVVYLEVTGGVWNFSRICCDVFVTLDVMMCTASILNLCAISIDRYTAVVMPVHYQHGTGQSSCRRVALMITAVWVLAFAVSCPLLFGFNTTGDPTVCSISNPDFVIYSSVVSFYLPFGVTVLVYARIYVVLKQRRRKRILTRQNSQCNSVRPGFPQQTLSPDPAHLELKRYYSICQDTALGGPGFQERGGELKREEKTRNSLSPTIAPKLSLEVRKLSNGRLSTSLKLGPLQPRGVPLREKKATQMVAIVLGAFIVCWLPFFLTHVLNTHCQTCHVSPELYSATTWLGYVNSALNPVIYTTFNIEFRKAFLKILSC
Experimental: as §2, §3

5-HT1A receptor = target: T4, 5-HT1A receptor (Homo sapiens, UniProt P08908); assay: Serotonin receptor binding experiment, 5-HT1A; parameters: species or system human or rat; conditions: [3H]8-OH-DPAT 0.5 nM, 60 min at 27° C.; read-out: Receptor affinity (IC50, nM) 5-HT1A
T4 sequence (P08908 1-422): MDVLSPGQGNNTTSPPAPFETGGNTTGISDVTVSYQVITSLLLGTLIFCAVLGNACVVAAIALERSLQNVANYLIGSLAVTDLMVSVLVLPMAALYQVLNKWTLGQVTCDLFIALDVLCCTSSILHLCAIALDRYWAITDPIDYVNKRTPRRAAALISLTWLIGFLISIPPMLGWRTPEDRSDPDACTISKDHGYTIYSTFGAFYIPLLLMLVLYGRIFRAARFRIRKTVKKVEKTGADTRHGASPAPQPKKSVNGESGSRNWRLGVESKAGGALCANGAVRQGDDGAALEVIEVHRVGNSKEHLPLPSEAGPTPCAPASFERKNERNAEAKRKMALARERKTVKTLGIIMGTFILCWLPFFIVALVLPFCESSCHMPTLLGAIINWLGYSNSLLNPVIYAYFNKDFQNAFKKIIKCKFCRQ
Experimental: (§4) The measurement of affinity for serotonin 5-HT receptor family was performed according to the experimental conditions as specified in Table 2 below using the method same as in Experimental Example 1 above.

5-HT2A receptor = 5-HT2A receptor (Homo sapiens, UniProt P28223); assay: Serotonin receptor binding experiment, 5-HT2A; parameters: species or system human or rat; conditions: [3H]ketanserin 1 nM, 15 min at 37° C.; read-out: Receptor affinity (IC50, nM) 5-HT2A
5-HT2A receptor, sequence (P28223 whole entry): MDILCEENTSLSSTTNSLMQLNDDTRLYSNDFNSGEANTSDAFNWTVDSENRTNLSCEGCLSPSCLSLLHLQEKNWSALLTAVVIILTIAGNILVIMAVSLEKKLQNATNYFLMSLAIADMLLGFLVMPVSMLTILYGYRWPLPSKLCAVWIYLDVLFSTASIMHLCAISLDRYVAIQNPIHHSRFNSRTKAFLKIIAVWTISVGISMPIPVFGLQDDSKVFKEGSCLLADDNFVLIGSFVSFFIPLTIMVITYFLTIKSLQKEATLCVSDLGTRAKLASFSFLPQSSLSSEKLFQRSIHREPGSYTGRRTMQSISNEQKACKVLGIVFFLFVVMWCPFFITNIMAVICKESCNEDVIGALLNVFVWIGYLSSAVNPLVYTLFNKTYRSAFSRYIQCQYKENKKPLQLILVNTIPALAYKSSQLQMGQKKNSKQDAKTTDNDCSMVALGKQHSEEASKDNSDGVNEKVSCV
Experimental: as §4

5-HT2C receptor = target: T5, 5-HT2C receptor (Homo sapiens, UniProt P28335); assay: Serotonin receptor binding experiment, 5-HT2C; parameters: species or system human or rat; conditions: [3H]Mesulergine 1 nM, 30 min at 37° C.; read-out: Receptor affinity (IC50, nM) 5-HT2C
T5 sequence (P28335 33-458): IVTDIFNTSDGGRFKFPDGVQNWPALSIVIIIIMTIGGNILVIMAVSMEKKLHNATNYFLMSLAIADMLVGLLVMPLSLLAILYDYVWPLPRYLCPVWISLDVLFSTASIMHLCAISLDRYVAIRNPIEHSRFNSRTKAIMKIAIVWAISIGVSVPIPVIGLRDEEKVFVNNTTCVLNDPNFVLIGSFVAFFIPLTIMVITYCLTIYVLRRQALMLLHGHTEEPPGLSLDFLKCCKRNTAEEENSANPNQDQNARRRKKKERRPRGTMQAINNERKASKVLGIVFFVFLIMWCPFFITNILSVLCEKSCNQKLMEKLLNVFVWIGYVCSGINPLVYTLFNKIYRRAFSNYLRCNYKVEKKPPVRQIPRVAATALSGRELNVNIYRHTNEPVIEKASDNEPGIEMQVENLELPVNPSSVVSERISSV
Experimental: as §4

5-HT6 receptor = 5-HT6 receptor (Homo sapiens, UniProt P50406); assay: Serotonin receptor binding experiment, 5-HT6; parameters: species or system human or rat; conditions: [3H]LSD 1.8 nM, 60 min at 37° C.; read-out: Receptor affinity (IC50, nM) 5-HT6
5-HT6 receptor, sequence (P50406 whole entry): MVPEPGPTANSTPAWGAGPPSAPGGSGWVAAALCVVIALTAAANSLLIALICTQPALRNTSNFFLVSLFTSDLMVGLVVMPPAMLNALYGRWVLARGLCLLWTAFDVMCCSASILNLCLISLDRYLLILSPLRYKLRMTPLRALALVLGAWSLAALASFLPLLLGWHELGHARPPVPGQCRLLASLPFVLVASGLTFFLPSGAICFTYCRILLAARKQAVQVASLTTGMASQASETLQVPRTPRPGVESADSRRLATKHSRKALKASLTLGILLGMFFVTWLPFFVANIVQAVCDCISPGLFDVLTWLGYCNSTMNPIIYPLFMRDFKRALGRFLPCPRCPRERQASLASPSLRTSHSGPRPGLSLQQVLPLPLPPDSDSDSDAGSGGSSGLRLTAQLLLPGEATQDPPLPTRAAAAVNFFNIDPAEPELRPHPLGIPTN
Experimental: as §4

5-HT7 receptor = 5-HT7 receptor (Homo sapiens, UniProt P34969); assay: Serotonin receptor binding experiment, 5-HT7; parameters: species or system human or rat; conditions: [3H]LSD 3 nM, 90 min at 27° C.; read-out: Receptor affinity (IC50, nM) 5-HT7
5-HT7 receptor, sequence (P34969 whole entry): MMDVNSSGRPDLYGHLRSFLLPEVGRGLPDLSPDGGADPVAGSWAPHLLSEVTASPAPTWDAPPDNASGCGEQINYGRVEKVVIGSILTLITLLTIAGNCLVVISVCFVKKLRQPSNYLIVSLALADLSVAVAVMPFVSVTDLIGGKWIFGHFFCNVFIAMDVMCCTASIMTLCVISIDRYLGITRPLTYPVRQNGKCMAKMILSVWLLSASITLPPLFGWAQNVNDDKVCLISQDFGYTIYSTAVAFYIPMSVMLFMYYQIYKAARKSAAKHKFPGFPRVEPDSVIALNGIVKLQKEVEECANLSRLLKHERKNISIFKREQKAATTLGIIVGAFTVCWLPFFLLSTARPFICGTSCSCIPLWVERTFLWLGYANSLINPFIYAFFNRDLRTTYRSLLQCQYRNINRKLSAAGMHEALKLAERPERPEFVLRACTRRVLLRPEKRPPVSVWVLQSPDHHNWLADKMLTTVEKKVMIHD
Experimental: as §4

Rotarod deficit in mice [6] = assay type: in vivo; conditions: mouse, in vivo; mice, ip, rod rotating at 6 rpm, 30-120 min after administration
Experimental: as §1

Row | SMILES | ED50 [1] | Inhibitory effects on apomorphine-induced climbing behavior ED50 (mg/kg, ip) [1] | rotarod deficit TD50 as times of ED50 for antipsychotic efficacy (rotarod deficit in mice [2]; mouse, in vivo) | pIC50 [3] | affinity for D2 receptors (in words) [4] | IC50 ([4]; [3H]spiperone 0.5 nM, CHO cell line, 60 min at 27° C.) | IC50 [5] | IC50 (5-HT1A receptor) | IC50 (5-HT2A receptor) | IC50 (5-HT2C receptor) | IC50 (5-HT6 receptor) | IC50 (5-HT7 receptor) | TD50 (Rotarod deficit in mice [6]) | rotarod deficit TD50 as times of ED50 for antipsychotic efficacy (rotarod deficit in mice [2]; mice)
1 | CCCc1cc(CCCN2CCN(c3ccc(Cl)cc3)CC2)n(-c2ccccc2)n1 [Compound 157, 1-(4-chlorophenyl)-4-(3-(1-phenyl-3-propyl-1H-pyrazol-5-yl)propyl)piperazine] | 8.8 to 14.5 mg/kg | 14.5 mg/kg | 2.2-5 times | – | – | – | – | – | – | – | – | – | – | –
2 | CCCc1cc(CCCN2CCN(c3ccc(Cl)c(Cl)c3)CC2)n(-c2ccccc2)n1 [Compound 163, 1-(3,4-dichlorophenyl)-4-(3-(1-phenyl-3-propyl-1H-pyrazol-5-yl)propyl)piperazine] | – | – | – | 8.11 | extremely poor affinity | 1060 nM | 420 nM | 494 nM | 45 nM | 558 nM | 617 nM | 651 nM | – | –
3 | CN1CCN(C2=Nc3cc(Cl)ccc3Nc3ccccc32)CC1 [clozapine, reference compound] | 4 mg/kg | – | – | – | – | – | – | – | – | – | – | – | 3.9 mg/kg | almost same
